Measured values taken from patent US6855667B2, “Method for safening crops from the phytotoxic effects of herbicides by use of phosphorated esters” (priority 2000, dated 2005).

Tests used:
Assay type in all cases: in vivo
corn (Pioneer 3733) = assay: Clomazone injury and dietholate safening of corn, variety Pioneer 3733; conditions: 14 days
Description: (§1) The compounds and compositions of the present invention were tested as water/surfactant solutions on two corn varieties (Pioneer 3733 and Pioneer 3876) and one variety (DPL 61) of cotton. In one embodiment, the safening compound and herbicidal compound were sprayed in admixture as a tank mix onto flats of corn or cotton seeds arranged in a randomized, block design. In another embodiment, the safening compound was applied to the plant seeds by placing the safening compound and the plant seeds in a screw-capped jar, which was rolled on its side until dispersion of the safening compound was complete. Optionally, a sticker compound, for example, without limitation, water or carboxymethylcellulose, can be used to adhere the safening compound to the plant seeds. The treated plant seeds were planted and immediately sprayed with herbicidal compound as described hereinabove. There were four replicates for each rate of application. The emerging corn and cotton plants were maintained in a growth chamber for 14 days after which time they were evaluated for percent injury as compared to an untreated control.

corn (Pioneer 3876) = assay: Clomazone injury and dietholate safening of corn, variety Pioneer 3876; conditions: 14 days
Description: as §1

[1] = test system: two corn varieties (Pioneer 3733 and Pioneer 3876); assay: Clomazone injury and dietholate safening of corn, both varieties together; conditions: clomazone without the safening compound dietholate
Description: as §1, with “control. […]” for “control.”

cotton (DPL 61) = assay: Clomazone injury and dietholate safening of cotton, growth chamber, percent injury vs untreated control; conditions: for Percent Injury: 14 days
Description: as §1

CC1(C)CON(Cc2ccccc2Cl)C1=O [Clomazone, 2-[(2-chlorophenyl)methyl]-4,4-dimethyl-3-isoxazolidinone]
Percent Injury (corn (Pioneer 3733); clomazone 0.06 kg/ha alone): 2% | Percent Injury (corn (Pioneer 3733); clomazone 0.12 kg/ha alone): 28% | Percent Injury (corn (Pioneer 3733); clomazone 0.24 kg/ha alone): 75% | Percent Injury (corn (Pioneer 3876); clomazone 0.06 kg/ha alone): 1% | Percent Injury (corn (Pioneer 3876); clomazone 0.12 kg/ha alone): 15% | Percent Injury (corn (Pioneer 3876); clomazone 0.24 kg/ha alone): 59% | injury to corn (in words) [1]: significant injury | Percent Injury (cotton (DPL 61); clomazone 0.25 kg/ha alone): 46% | Percent Injury (cotton (DPL 61); clomazone 0.50 kg/ha alone): 77% | Percent Injury (cotton (DPL 61); clomazone 1.0 kg/ha alone): 91% | injury to cotton (in words) (cotton (DPL 61); clomazone without the safening compound dietholate): significant injury
